Measurements published in patent US10421782B2, “Cyclic cationic peptides with antimicrobial activity” (I.C.F. S.R.L., priority 2012, dated 2019).
In brackets after ≈: the same amount, converted by molar mass. Several values for one entry are separate records, joined by “and”; a condition that tells them apart may be missing. Equal values may be shown once. Read-outs that look alike come from different tables or passages of the source. Where a SMILES comes first, the peptide text is derived from it. Bridges are numbered along the chain shown (N, C = ends).

Key:
E. coli ML-35pYC = test: Membrane permeabilization assay (CENTA / ONPG kinetics); format: cell-based, Escherichia coli; conditions: peptide 12.5 μg/ml, logistic 4-parameter fit, read up to 240 min; for Inflexion point CENTA: CENTA substrate (periplasmic beta-lactamase)
Method: The strain ML-35pYC of E. coli was used to assay the kinetics of membrane permeabilization performed by the peptides of the invention. This bacterial strain expresses resistance to ampicillin, constitutive expression of cytoplasmic beta-galactosidase, and is engineered with a plasmid for the synthesis of a periplasmic beta-lactamase. Sixty microliters (60 μl) of bacterial suspension of strain ML-35pYC of E. coli were added to 60 μl of a 15 mM solution of ONPG or 1.5 mM of CENTA in phosphate buffer. Subsequently, 120 μl of the test peptides were added to obtain a final concentration of 12.5 μg/ml. The kinetics of the reaction was evaluated by recording the value of absorbance at […] and 405 nm, for ONPG and CENTA respectively, every 10 min up to a maximum of 240 min.
By “fitting” the experimental points with the logistic 4-parameter curve, it was possible to determine the inflexion point, that is the point where the curve changes direction, relative to the 3 test peptides. No inflexion point was observed during the assay with CENTA (inflexion point higher than 500 min).

[1] = system: Escherichia coli ATCC 25922; format: cell-based; conditions: for LD90 E. coli ATCC 25922: 2 h contact at 37° C., CFU count after 24 h
Method: (§1) For each bacterial strain, 3-5 morphologically similar colonies were drawn from fresh cultures, inoculated in Brain Hearth Infusion broth liquid medium and incubated at the temperature of 37° C. under shaking at 225 r.p.m. for 3-4 h. Subsequently, the bacterial suspension was centrifuged at 1000 g for 20 min and the thus obtained pellet was resuspended in phosphate buffer 10 mM. Turbidity was measured in a spectrophotometer with absorbance at 600 nm, equivalent in the range 0.08-0.13 to a concentration of about 10^8 CFU/ml. The bacterial suspension was diluted 1:100 in phosphate buffer 10 mM, and within 30 min 50 microliters of such bacterial suspension (10^6 CFU/ml) were inoculated in each well of the microtiter plate, to obtain a final bacterial concentration of about 5×10^5 CFU/ml.
(§2) Several peptides were tested for their ability to inhibit bacterial growth in liquid culture. Fifty microliters of peptide at a concentration comprised between about 0.2 mM and 50 mM were added in 96-well U-bottom plates containing liquid growth medium and one of the following bacteria: Escherichia coli ATCC 25922, P. aeruginosa ATCC 27853, Stenotrophomonas maltophilia ATCC 13637. After 2 hour incubation at 37° C., bacteria were transferred on a solid medium. As a growth control, bacterial cultures were cultured in the absence of peptides.
(§3) The bacterial suspension was put in contact for two hours with different concentrations of the peptide at the temperature of 37° C. After incubation, 20 μl were drawn from the wells of each dilution and seeded on solid medium, agar McConkey. The inoculum was evenly distributed on the agarized medium by means of a sterile disposable loop. After incubation for 24 h at the temperature of 37° C., counting of the bacterial colonies (CFU) was performed.

[2] = system: Pseudomonas aeruginosa ATCC 27853; format: cell-based; conditions: for LD90 P. aeruginosa ATCC 27853: 2 h contact at 37° C., CFU count after 24 h
Method: as §1, §2, §3

[3] = system: Stenotrophomonas maltophilia ATCC 13637; test: Broth-microdilution test and subsequent plating on agar, Gram-negative bacteria; format: cell-based; conditions: 2 h contact at 37° C., CFU count after 24 h
Method: as §1, §2, §3

S. aureus ATCC 25923 = test: Broth-microdilution test and subsequent plating on agar, Gram-positive bacteria; format: cell-based, Staphylococcus aureus; conditions: meticillin-sensitive, 2 h contact at 37° C., CFU count after 24 h
Method: as §1, with “30 min,” for “30 min”
(§4) Several synthetic peptides were tested for their ability to inhibit bacterial growth. Fifty microliters of peptide at a concentration comprised between about 0.2 mM and about 50 mM were added to 96-well U-bottom plates containing phosphate buffer and one of the following bacteria: S. aureus ATCC 25923, meticillin-resistant S. aureus ATCC 43300. After 2 hour incubation at 37° C., bacteria were transferred on a solid medium. As a control, the bacterial cultures were cultured in the absence of peptide.
(§5) The bacterial suspension was put in contact for two hours with different concentrations of the peptide at the temperature of 37° C. After incubation, 20 μl were drawn from the wells of each dilution and seeded on solid medium, Columbia agar supplemented with 5% bovine red blood cells for Gram-positive bacteria. The inoculum was evenly distributed on the agarized medium by means of a sterile disposable loop. After incubation for 24 hours at the temperature of 37° C., counting of the bacterial colonies (CFU) was performed.

[4] = system: meticillin-resistant S. aureus ATCC 43300; test: as above; format: cell-based, Staphylococcus aureus; conditions: 2 h contact at 37° C., CFU count after 24 h
Method: as §1, with “30 min,” for “30 min”
as §4, §5

[5] = system: Candida albicans ATCC 10231; test: Broth-microdilution test and subsequent plating on agar, fungi (yeasts); format: cell-based; conditions: 2 h contact at 37° C., CFU count on agar Sabouraud
Method: (§6) The inoculum was set up by culturing Candida albicans ATCC 10231 and Malassezia pachydermatis ATCC 14522 in Czapek-Dox broth medium (DIFCO) for 48-72 h. On the assay day, the fungal culture was centrifuged at 1700×g for 15 min, the pellet was resuspended in phosphate buffer and submitted to shaking by the use of an electric vortex to disperse the fungal cell aggregates. The suspension was diluted until an optical density equal to an opacity of 0.5 on the McFarland turbidimetric scale was reached, which contains approximately 1-5×10^6 cell/ml (Branda J. A., Krantz A. Effectc of yeast on automated cell counting. Am J Clin Pathol., 2006:126, 248-254).
(§7) The peptides were tested for their ability to inhibit fungal growth. Fifty microliters of peptide at a concentration comprised between about 0.2 mM and about 50 mM were added in 96-well U-bottom plates containing phosphate buffer and one of the following fungi: Candida albicans ATCC 10231 and Malassezia pachydermatis ATCC 14522. After 2 h incubation at 37° C., fungi were transferred on the solid medium agar Sabouraud. As a control, fungal cultures were cultured in the absence of peptide.
(§8) The fungal suspension was put in contact for two hours with different concentrations of the peptide at the temperature of 37° C. After incubation, 20 μl were drawn from the wells of each dilution and seeded on the solid medium agar Sabouraud. The inoculum was evenly distributed on the agarized medium by means of a sterile disposable loop. After incubation for 24 h at the temperature of 37° C., counting of the fungal colonies (CFU) was performed.

[6] = system: Malassezia pachydermatis ATCC 14522; test: as above; format: cell-based; conditions: 2 h contact at 37° C., CFU count on agar Sabouraud
Method: as §6, §7, §8

Jurkat cells = test: Cytotoxicity of peptides against Jurkat cells (Trypan Blue); format: cell-based; conditions: 20 μM
Method: Cytotoxicity of the peptides against T lymphocytes, for example Jurkat cells, was determined seeding the cells at a density of about 5*10^5 cells/ml in the presence and in the absence of peptides and incubating overnight at 37° C. in thermostat under CO2. As a negative cytotoxicity control, a medium lacking the test peptide was used, while as a positive cytotoxicity control, a medium containing 0.2% Triton X-100 was used, to completely lyse the cells. The cell viability was subsequently determined by adding 20 μl of Trypan Blue in each well, and by incubation of the cells for additional 5 min a 37° C. MCC10 value was calculated as the minimum peptide concentration necessary to induce 10% of cytotoxicity.

Row | SMILES | Inflexion point CENTA (E. coli ML-35pYC) | LD90 E. coli ATCC 25922 [1] | MBC E. coli ATCC 25922 [1] | LD90 P. aeruginosa ATCC 27853 [2] | MBC P. aeruginosa ATCC 27853 [2] | LD90 S. maltophilia ATCC 13637 [3] | LD90 S. aureus ATCC 25923 (S. aureus ATCC 25923) | LD90 MRSA ATCC 43300 [4] | LD90 Candida albicans [5] | LD90 Malassezia pachydermatis [6] | other results
1 | CC[C@H](C)[C@@H]1NC(=O)[C@H](Cc2ccccc2)NC(=O)[C@H](CCCCN)NC(=O)[C@H](C(C)C)NC(=O)CNC(=O)[C@H](CCCNC(=N)N)NC(=O)[C@H](Cc2c[nH]c3ccccc23)NC(=O)[C@H](CCC(N)=O)NC(=O)[C@H](Cc2c[nH]c3ccccc23)NC(=O)[C@H](CCCCN)NC(=O)[C@H](CCCNC(=N)N)NC(=O)[C@@H](NC(=O)[C@H](Cc2c[nH]c3ccccc23)NC(=O)[C@@H](N)CCCCN)CSSC[C@@H](C(=O)N[C@H](C(=O)O)C(C)C)NC(=O)[C@H](CCCCN)NC1=O (relative stereo) [Peptide P126, LYS*TRP*CYS*ARG*LYS*TRP*GLN*TRP*ARG*GLY*VAL*LYS*PHE*ILE*LYS*CYS*VAL] | >500 min | 0.91 µM | 12.5 µg/mL (≈ 5.56 µM) | 0.20 µM | 4.53 µg/mL (≈ 2.01 µM) | 6.65 µM | 4.68 µM | >70 µM | 1.98 µM | 0.75 µM | LD90 E. coli ATCC 25922 ([1]; listed as 126): 1.86 μg/ml and 0.91 μM; LD90 P. aeruginosa ATCC 27853 ([2]; listed as 126): 0.20 μM and 0.4 μg/ml; LD90 S. aureus ATCC 25923 (S. aureus ATCC 25923; listed as 126): 4.68 μM and 9.54 μg/ml; LD90 MRSA ATCC 43300 ([4]; listed as 126): about 71 μM and ~100 μg/ml; LD90 Candida albicans ([5]; listed as 126): about 2 μM
2 | CC[C@H](C)[C@@H]1NC(=O)CNC(=O)[C@H](CCCNC(=N)N)NC(=O)[C@H](Cc2ccc(O)cc2)NC(=O)[C@@H]2CSSC[C@H](NC1=O)C(=O)N[C@@H](Cc1ccc(O)cc1)C(=O)N[C@@H](CCCNC(=N)N)C(=O)N[C@@H](CCCNC(=N)N)C(=O)N[C@H](C(=O)N[C@@H](CCCNC(=N)N)C(N)=O)CSSC[C@H](NC(=O)[C@H](Cc1c[nH]c3ccccc13)NC(=O)[C@@H](N)CCCCN)C(=O)N[C@@H](Cc1ccccc1)C(=O)N[C@@H](CCCNC(=N)N)C(=O)N[C@@H](C(C)C)C(=O)N2 [tachyplesin-1] (H-KWCFRVCYRGICYRRCR-NH2; disulfide 3-16, 7-12) | – | – | – | – | – | – | – | – | – | – | death of the cells (Jurkat) (Jurkat cells): 10%
3 | CC(C)C[C@@H]1NC(=O)CNC(=O)[C@H](CCCNC(=N)N)NC(=O)[C@H](C(C)C)NC(=O)[C@H](CCCCN)NC(=O)[C@H](C(C)C)NC(=O)[C@H](CC(C)C)NC(=O)[C@H](C)NC(=O)[C@@H](NC(=O)CNC(=O)[C@@H](N)CCCCN)CSSC[C@@H](C(=O)N[C@@H](CCCCN)C(=O)O)NC(=O)[C@H](C(C)C)NC(=O)[C@H](CCCCN)NC(=O)[C@H](CC(C)C)NC(=O)[C@H]([C@@H](C)O)NC1=O (relative stereo) [Peptide P72, LYS*GLY*CYS*ALA*LEU*VAL*LYS*VAL*ARG*GLY*LEU*THR*LEU*LYS*VAL*CYS*LYS] | >500 min | 0.86 µM | 9.68 µg/mL (≈ 5.34 µM) | 0.87 µM | 2.84 µg/mL (≈ 1.57 µM) | 1.88 µM | 3.39 µM | 0.90 µM | 1.03 µM | 0.68 µM | Inflexion point ONPG (E. coli ML-35pYC; ONPG substrate (cytoplasmic beta-galactosidase)): 7.86 min; LD90 E. coli ATCC 25922 ([1]; listed as 72): 1.69 μg/ml and 0.86 μM; LD90 P. aeruginosa ATCC 27853 ([2]; listed as 72): 0.87 μM and 1.61 μg/ml; LD90 S. maltophilia ATCC 13637 ([3]; listed as 72): 1.88 μM and 3.42 μg/ml; LD90 S. aureus ATCC 25923 (S. aureus ATCC 25923; listed as 72): 3.39 μM and 6.16 μg/ml; LD90 MRSA ATCC 43300 ([4]; listed as 72): 0.90 μM and 1.65 μg/ml; LD90 Candida albicans ([5]; listed as 72): 1.03 μM and 1.87 μg/ml; LD90 Malassezia pachydermatis ([6]; listed as 72): 0.68 μM and 1.24 μg/ml
